Measurements: ChEMBL document CHEMBL1201862, “PubChem BioAssay data set” (2004)
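1) Cells in 96-well plates. 2) Compound, 48 h, 5 concentrations. 3) Linear interpolation between surrounding doses. 4) Unreached endpoint = highest concentration. Abbreviation: GI50, concentration required for 50% inhibition of growth.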 Active and inactive are the calls of the source. Cut-off read from the data, not from the text of the source: active = GI50 up to about 1.1 µM and inactive = higher.

Columns and labels:
Experiment in all cases: NCI tumour cell line growth inhibition, 48 h
[1] = system: OVCAR-3
[2] = system: M19-MEL
[3] = system: SNB-78
[4] = system: UO-31
[5] = system: HCT-116
[6] = system: U-251
[7] = system: IGROV-1
[8] = system: NCI-H460
[9] = system: HOP-92
[10] = system: HCT-15
[11] = system: UACC-257
[12] = system: TK-10
[13] = system: M14
[14] = system: SF-539
[15] = system: ACHN
[16] = system: A498
[17] = system: KM12
[18] = system: HT-29
[19] = system: HCC 2998
[20] = system: 786-0
[21] = system: SF-268
[22] = system: UACC-62
[23] = system: NCI-H23
[24] = system: OVCAR-4
[25] = system: RPMI-8226
[26] = system: NCI-H522
[27] = system: OVCAR-8
[28] = system: DMS-273
[29] = system: SN12C
[30] = system: HL-60
[31] = system: K562
[32] = system: DLD-1
[33] = system: DMS-114
[34] = system: OVCAR-5
[35] = system: COLO 205
[36] = system: SNB-75
[37] = system: RXF 631
[38] = system: SF-295
[39] = system: SW-620
[40] = system: SK-MEL-2
[41] = system: RXF 393
[42] = system: EKVX
[43] = system: NCI-H226
[44] = system: A549
[45] = system: SK-MEL-28
[46] = system: HOP-18
[47] = system: HOP-62
[48] = system: Malme-3M
[49] = system: CAKI-1
[50] = system: LXFL 529
[51] = system: SNB-19
[52] = system: CCRF-CEM
[53] = system: SK-OV-3
[54] = system: LOX IMVI
[55] = system: KM-20L2
[56] = system: SK-MEL-5
[57] = system: MOLT-4

Compound: CCCCCCCCCCCCCCCC(=O)OCC1OC(n2cc(F)c(=O)[nH]c2=O)C(NC(=O)N(CCCl)N=O)C(O)C1O (stereo not drawn)
- GI50 [1]: 8.04 µM (inactive)
- GI50 [2]: 2.82 µM (inactive)
- GI50 [3]: 3.85 µM (inactive)
- GI50 [4]: 12.3 µM (inactive)
- GI50 [5]: 1.22 µM (inactive)
- GI50 [6]: 0.0585 µM (active)
- GI50 [7]: 4.43 µM (inactive)
- GI50 [8]: 0.152 µM (active)
- GI50 [9]: 3.65 µM (inactive)
- GI50 [10]: 4.95 µM
- GI50 [11]: 5.94 µM (inactive)
- GI50 [12]: 10.1 µM (inactive)
- GI50 [13]: 4.06 µM (inactive)
- GI50 [14]: 0.122 µM (active)
- GI50 [15]: 1.64 µM (inactive)
- GI50 [16]: 4.44 µM (inactive)
- GI50 [17]: 1.86 µM (inactive)
- GI50 [18]: 4.68 µM (inactive)
- GI50 [19]: 2.71 µM (inactive)
- GI50 [20]: 0.166 µM (active)
- GI50 [21]: 0.0246 µM (active)
- GI50 [22]: 0.0103 µM (active)
- GI50 [23]: 0.731 µM (active)
- GI50 [24]: 7.96 µM (inactive)
- GI50 [25]: 3.06 µM (inactive)
- GI50 [26]: 5.15 µM (inactive)
- GI50 [27]: 3.86 µM (inactive)
- GI50 [28]: 0.343 µM (active)
- GI50 [29]: 2.07 µM (inactive)
- GI50 [30]: 0.428 µM (active)
- GI50 [31]: 1.76 µM (inactive)
- GI50 [32]: 2.84 µM (inactive)
- GI50 [33]: 1.12 µM (inactive)
- GI50 [34]: 13.1 µM (inactive)
- GI50 [35]: 4.41 µM (inactive)
- GI50 [36]: 0.228 µM (active)
- GI50 [37]: 3.08 µM (inactive)
- GI50 [38]: 0.156 µM (active)
- GI50 [39]: 1.31 µM (inactive)
- GI50 [40]: 1.35 µM (inactive)
- GI50 [41]: 2.38 µM (inactive)
- GI50 [42]: 2.58 µM (inactive)
- GI50 [43]: 10.4 µM (inactive)
- GI50 [44]: 0.767 µM (active)
- GI50 [45]: 2.37 µM (inactive)
- GI50 [46]: 16.4 µM (inactive)
- GI50 [47]: 0.354 µM (active)
- GI50 [48]: 4.47 µM (inactive)
- GI50 [49]: 4.78 µM (inactive)
- GI50 [50]: 5.3 µM (inactive)
- GI50 [51]: 0.979 µM (active)
- GI50 [52]: 0.611 µM (active)
- GI50 [53]: 5.45 µM (inactive)
- GI50 [54]: 0.157 µM (active)
- GI50 [55]: 5.15 µM (inactive)
- GI50 [56]: 3.94 µM (inactive)
- GI50 [57]: 1.21 µM (inactive)

Compound: COc1ccc2c(c1)C1(C=N2)CCN(C(C)=O)CC1
- GI50 [1]: > 100 µM (inactive)
- GI50 [2]: > 100 µM (inactive)
- GI50 [3]: > 100 µM (inactive)
- GI50 [5]: > 100 µM (inactive)
- GI50 [6]: > 100 µM (inactive)
- GI50 [7]: > 100 µM (inactive)
- GI50 [8]: > 100 µM (inactive)
- GI50 [9]: 87.9 µM (inactive)
- GI50 [10]: > 100 µM
- GI50 [11]: > 100 µM (inactive)
- GI50 [12]: > 100 µM (inactive)
- GI50 [13]: > 100 µM (inactive)
- GI50 [14]: > 100 µM (inactive)
- GI50 [15]: > 100 µM (inactive)
- GI50 [16]: > 100 µM (inactive)
- GI50 [17]: 57.7 µM (inactive)
- GI50 [18]: > 100 µM (inactive)
- GI50 [19]: > 100 µM (inactive)
- GI50 [20]: > 100 µM (inactive)
- GI50 [21]: 48 µM (inactive)
- GI50 [22]: > 100 µM (inactive)
- GI50 [23]: > 100 µM (inactive)
- GI50 [24]: > 100 µM (inactive)
- GI50 [25]: 50.4 µM (inactive)
- GI50 [27]: > 100 µM (inactive)
- GI50 [28]: > 100 µM (inactive)
- GI50 [30]: > 100 µM (inactive)
- GI50 [31]: > 100 µM (inactive)
- GI50 [32]: > 100 µM (inactive)
- GI50 [33]: 60.5 µM (inactive)
- GI50 [34]: > 100 µM (inactive)
- GI50 [35]: > 100 µM (inactive)
- GI50 [36]: 41.1 µM (inactive)
- GI50 [37]: > 100 µM (inactive)
- GI50 [38]: > 100 µM (inactive)
- GI50 [39]: > 100 µM (inactive)
- GI50 [40]: > 100 µM (inactive)
- GI50 [42]: > 100 µM (inactive)
- GI50 [44]: > 100 µM (inactive)
- GI50 [45]: > 100 µM (inactive)
- GI50 [46]: 41.5 µM (inactive)
- GI50 [47]: > 100 µM (inactive)
- GI50 [48]: > 100 µM (inactive)
- GI50 [49]: > 100 µM (inactive)
- GI50 [50]: > 100 µM (inactive)
- GI50 [52]: > 100 µM (inactive)
- GI50 [53]: > 100 µM (inactive)
- GI50 [54]: > 100 µM (inactive)
- GI50 [55]: > 100 µM (inactive)
- GI50 [56]: > 100 µM (inactive)
- GI50 [57]: 82 µM (inactive)
